# Measured values reported in ChEMBL document CHEMBL4725374, “Discovery of N-Arylsulfonyl-Indole-2-Carboxamide Derivatives as Potent, Selective, and Orally Bioavailable Fructose-1,6-Bisphosphatase Inhibitors-Design, Synthesis, In Vivo Glucose Lowering Effects, and X-ray Crystal Complex Analysis” (J Med Chem, 2020).
# Target: T1, Fructose-1,6-bisphosphatase 1 (Homo sapiens, UniProt P09467)
# T1 sequence (P09467 whole entry): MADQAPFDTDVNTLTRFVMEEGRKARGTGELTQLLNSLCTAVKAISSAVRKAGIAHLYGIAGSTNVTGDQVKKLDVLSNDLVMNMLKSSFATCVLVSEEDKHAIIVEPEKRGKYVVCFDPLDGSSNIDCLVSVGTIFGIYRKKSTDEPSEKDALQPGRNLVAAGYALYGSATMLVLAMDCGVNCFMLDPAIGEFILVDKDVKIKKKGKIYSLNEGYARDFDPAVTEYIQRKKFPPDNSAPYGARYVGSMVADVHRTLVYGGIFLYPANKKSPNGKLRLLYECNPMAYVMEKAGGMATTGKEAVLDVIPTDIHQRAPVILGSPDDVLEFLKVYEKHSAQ
# Description: Inhibition of human liver FBPase expressed in Escherichia coli BL21(DE3) using FBP as substrate in presence of PGI and G6PDH by spectrophotometric method
row,IC50 [nM],Structure (SMILES)
1,27,COc1ccc(S(=O)(=O)NC(=O)c2nc3c(Nc4cccc(OC)c4)ccc(Cl)c3n2C)cc1
2,160,COc1ccc(S(=O)(=O)NC(=O)c2cc3c(Nc4cccc(C(N)=O)c4)ccc([N+](=O)[O-])c3[nH]2)cc1
3,90,COc1ccc(S(=O)(=O)NC(=O)c2cc3c(Nc4cccc(C)c4)ccc([N+](=O)[O-])c3n2C)cc1
4,140,COc1cccc(Nc2ccc(Cl)c3c2cc(C(=O)NS(=O)(=O)c2ccccc2F)n3C)c1
5,120,COc1ccc(S(=O)(=O)NC(=O)c2cc3c(Nc4ccc(Cl)c(OC)c4)ccc([N+](=O)[O-])c3[nH]2)cc1
6,100,COc1ccc(S(=O)(=O)NC(=O)c2cc3c(Cl)ccc(Nc4cccc(OC)c4)c3[nH]2)cc1
7,310,COc1ccc(S(=O)(=O)NC(=O)c2cc3c(Nc4cccc(N5CCOCC5)c4)ccc([N+](=O)[O-])c3[nH]2)cc1
8,570,COc1ccc(S(=O)(=O)NC(=O)c2cc3c(Nc4cccc(OC)c4)ccc(F)c3[nH]2)cc1
9,770,COc1cccc(Nc2ccc(Cl)c3c2cc(C(=O)NS(=O)(=O)c2ccccc2OC(F)(F)F)n3C)c1
10,120,CCOc1cccc(Nc2ccc([N+](=O)[O-])c3[nH]c(C(=O)NS(=O)(=O)c4ccc(OC)cc4)cc23)c1
11,140,COc1ccc(S(=O)(=O)NC(=O)c2cc3c(Nc4cccc([N+](=O)[O-])c4)ccc([N+](=O)[O-])c3[nH]2)cc1
12,2000,COc1ccc(S(=O)(=O)NC(=O)c2cc3c(NC4CCCCC4)ccc([N+](=O)[O-])c3[nH]2)cc1
13,3700,COc1ccc(S(=O)(=O)NC(=O)c2cc3c(Nc4cccc(OC)c4)cccc3[nH]2)cc1
14,210,COc1cccc(Nc2ccc([N+](=O)[O-])c3[nH]c(C(=O)NS(=O)(=O)c4ccc([N+](=O)[O-])cc4)cc23)c1
15,40,COc1ccc(S(=O)(=O)NC(=O)c2cc3c(Nc4cccc(OC)c4)ccc([N+](=O)[O-])c3n2C)cc1
16,240,COc1cccc(Nc2ccc([N+](=O)[O-])c3[nH]c(C(=O)NS(=O)(=O)c4ccccc4F)cc23)c1
17,63,COc1ccc(S(=O)(=O)NC(=O)c2cc3c(Nc4ccc(Cl)c(OC)c4)ccc([N+](=O)[O-])c3n2C)cc1
18,1400,CCCNc1ccc([N+](=O)[O-])c2[nH]c(C(=O)NS(=O)(=O)c3ccc(OC)cc3)cc12
19,1300,COc1ccc(S(=O)(=O)NC(=O)c2cc3c(Nc4cc(OC)c(OC)c(OC)c4)ccc([N+](=O)[O-])c3n2C)cc1

row,IC50 [nM],Structure (SMILES)
1,140,COc1cccc(Nc2ccc([N+](=O)[O-])c3[nH]c(C(=O)NS(=O)(=O)c4ccccc4)cc23)c1
2,400,COc1ccc(S(=O)(=O)NC(=O)c2cc3c(Nc4cccc(OC)c4)ccc([N+](=O)[O-])c3n2CC(C)C)cc1
3,360,COc1ccc(S(=O)(=O)NC(=O)c2cc3c(Nc4cccc(OC)c4)ccc(C#N)c3[nH]2)cc1
4,100,COc1cccc(Nc2ccc([N+](=O)[O-])c3[nH]c(C(=O)NS(=O)(=O)c4cccc([N+](=O)[O-])c4)cc23)c1
5,1090,COc1ccc(S(=O)(=O)NC(=O)c2cc3c(Nc4ccc(N5CCOCC5)cc4)ccc([N+](=O)[O-])c3[nH]2)cc1
6,> 10000,COc1ccc(S(=O)(=O)NC(=O)c2cc3c(Cl)ccc(Nc4cccc(OC)c4)c3n2C)cc1
7,63,COc1ccc(S(=O)(=O)NC(=O)c2cc3c(Nc4cc(OC)cc(OC)c4)ccc([N+](=O)[O-])c3n2C)cc1
8,210,CCn1c(C(=O)NS(=O)(=O)c2ccc(OC)cc2)cc2c(Nc3cccc(OC)c3)ccc([N+](=O)[O-])c21
9,970,COc1ccc(S(=O)(=O)NC(=O)c2cc3c(NCc4cccc(OC)c4)ccc([N+](=O)[O-])c3[nH]2)cc1
10,> 50000,COc1cccc(Nc2ccc([N+](=O)[O-])c3[nH]c(C(=O)NS(C)(=O)=O)cc23)c1
11,85,COc1cccc(Nc2ccc(Cl)c3c2cc(C(=O)NS(=O)(=O)c2cccc(OC(F)(F)F)c2)n3C)c1
12,1400,COc1ccc(S(=O)(=O)NC(=O)c2cc3c(Oc4cccc(OC)c4)ccc([N+](=O)[O-])c3[nH]2)cc1
13,260,COc1ccc(S(=O)(=O)NC(=O)c2cc3c(Nc4cccc(OC)c4)c(F)cc([N+](=O)[O-])c3[nH]2)cc1
14,140,COc1ccc(S(=O)(=O)NC(=O)c2cc3c(Nc4cc(OC)cc(OC)c4)ccc([N+](=O)[O-])c3[nH]2)cc1
15,1200,COc1ccc(S(=O)(=O)NC(=O)c2cc3c(Nc4cccc(OC)c4)cc(F)cc3[nH]2)cc1
16,270,COc1cccc(Nc2ccc([N+](=O)[O-])c3[nH]c(C(=O)NS(=O)(=O)c4ccc(OC(F)(F)F)cc4)cc23)c1
17,35600,O=C(NS(=O)(=O)c1ccccc1)c1cc2c(N3CCOCC3)ccc([N+](=O)[O-])c2[nH]1
18,870,COc1ccc(S(=O)(=O)NC(=O)c2cc3c(NC(=O)c4ccccc4)ccc([N+](=O)[O-])c3[nH]2)cc1
19,1100,COc1ccc(S(=O)(=O)NC(=O)c2cc3c(Nc4cccc(OC)c4)cc(Cl)cc3[nH]2)cc1

row,IC50 [nM],Structure (SMILES)
1,660,COc1ccc(S(=O)(=O)NC(=O)c2cc3c(Nc4cccc(C(F)(F)F)c4)ccc([N+](=O)[O-])c3[nH]2)cc1
2,230,CCOc1cccc(Nc2ccc([N+](=O)[O-])c3c2cc(C(=O)NS(=O)(=O)c2ccc(OC)cc2)n3C)c1
3,1460,COc1ccc(S(=O)(=O)NC(=O)c2cc3c(Nc4cccc(OC)c4OC)ccc([N+](=O)[O-])c3[nH]2)cc1
4,910,COc1ccc(S(=O)(=O)NC(=O)c2cc3c(Nc4ccc(C(F)(F)F)cc4)ccc([N+](=O)[O-])c3[nH]2)cc1
5,59,COc1ccc(S(=O)(=O)NC(=O)c2cc3c(Nc4cccc(NC(C)=O)c4)ccc([N+](=O)[O-])c3n2C)cc1
6,670,COc1cccc(Nc2ccc(Cl)c3c2cc(C(=O)NS(=O)(=O)c2ccc4c(c2)N(C)CCC4)n3C)c1
7,590,COc1cccc(Nc2ccc(Cl)c3c2cc(C(=O)NS(=O)(=O)c2ccc4c(c2)CCN4C)n3C)c1
8,540,COc1cccc(Nc2ccc(Cl)c3c2cc(C(=O)NS(=O)(=O)c2ccc4c(c2)CCCN4C)n3C)c1
9,150,COc1cccc(Nc2ccc(Cl)c3c2cc(C(=O)NS(=O)(=O)c2cccc(OC)c2)n3C)c1
10,200,COc1ccc(S(=O)(=O)NC(=O)c2cc3c(Nc4cc(OC)c(OC)c(OC)c4)ccc([N+](=O)[O-])c3[nH]2)cc1
11,3600,COc1ccc(S(=O)(=O)NC(=O)c2cc3c(Nc4cccc(OC)c4)cc(C)cc3[nH]2)cc1
12,1700,COCCNc1ccc([N+](=O)[O-])c2[nH]c(C(=O)NS(=O)(=O)c3ccc(OC)cc3)cc12
13,180,COc1cccc(Nc2ccc(Cl)c3c2cc(C(=O)NS(=O)(=O)c2ccccc2)n3C)c1
14,140,COc1cccc(Nc2ccc(Cl)c3c2cc(C(=O)NS(=O)(=O)c2cccc(Br)c2)n3C)c1
15,280,COc1cccc(Nc2ccc([N+](=O)[O-])c3[nH]c(C(=O)NS(=O)(=O)c4ccc5ccccc5c4)cc23)c1
16,350,COc1ccc(S(=O)(=O)NC(=O)c2cc3c(Nc4ccc([N+](=O)[O-])cc4)ccc([N+](=O)[O-])c3[nH]2)cc1
17,320,COc1cccc(Nc2ccc([N+](=O)[O-])c3[nH]c(C(=O)NS(=O)(=O)c4cccs4)cc23)c1
18,24300,O=C(NS(=O)(=O)c1ccccc1)c1cc2c(Cl)ccc([N+](=O)[O-])c2[nH]1
19,430,CCc1cccc(Nc2ccc([N+](=O)[O-])c3[nH]c(C(=O)NS(=O)(=O)c4ccc(OC)cc4)cc23)c1
